Target: T1, human PAD4 (Homo sapiens, UniProt Q9UM07)
T1 construct: human PAD4 (NM_012387), A2-P663, was PCR amplified; His-SUMO (N, cleaved yes); made in house; host or cells: E. coli BL21(DE3)
Test: In vitro PAD4 BAEE biochemical assay
Conditions: BAEE substrate 3 mM, 5 nM PAD4, 2 mM calcium chloride; geometric mean of multiple experiments
Procedure, shortened: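 Recombinant PAD4 (5 nM final) with 2 mM CaCl2 was preincubated with compound for 30 min at 25 °C in MOPS pH 7.6 buffer with DTT, then reacted with 3 mM BAEE for 2 h at 25 °C. Released ammonia was detected fluorimetrically with o-phthalaldehyde/DTT; IC50 from four-parameter fit, geometric mean of experiments.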

T1 sequence (Q9UM07 2-663): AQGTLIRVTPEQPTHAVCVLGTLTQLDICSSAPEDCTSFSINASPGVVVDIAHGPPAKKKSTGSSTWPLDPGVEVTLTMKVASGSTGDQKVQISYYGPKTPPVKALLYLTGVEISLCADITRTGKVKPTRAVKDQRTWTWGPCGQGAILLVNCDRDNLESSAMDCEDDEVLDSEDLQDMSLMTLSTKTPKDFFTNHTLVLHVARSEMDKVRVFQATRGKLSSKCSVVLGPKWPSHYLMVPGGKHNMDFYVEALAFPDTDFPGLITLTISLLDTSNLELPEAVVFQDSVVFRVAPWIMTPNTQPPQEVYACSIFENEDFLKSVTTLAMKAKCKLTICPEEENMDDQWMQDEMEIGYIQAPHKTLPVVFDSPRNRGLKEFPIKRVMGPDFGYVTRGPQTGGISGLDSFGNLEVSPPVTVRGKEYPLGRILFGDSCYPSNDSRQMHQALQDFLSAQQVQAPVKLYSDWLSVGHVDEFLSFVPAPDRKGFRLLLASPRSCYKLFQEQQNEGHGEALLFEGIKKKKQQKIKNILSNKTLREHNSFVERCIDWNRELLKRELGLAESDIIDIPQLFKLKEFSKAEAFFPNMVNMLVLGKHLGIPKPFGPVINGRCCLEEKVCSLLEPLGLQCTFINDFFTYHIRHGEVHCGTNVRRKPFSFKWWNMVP

Row | Compound | IC50 [nM]
1 | CN[C@H]1CN(C(=O)c2cc(OC)c3c(c2)nc(-c2cc4ccc5nc4n2CCCCCCC(C)(C)C(=O)N[C@@H]5C)n3C)CC[C@H]1OC [Example 105, (11~{R})-17-[7-methoxy-5-[(3~{S},4~{R})-4-methoxy-3-(methylamino)piperidine-1-carbonyl]-1-methyl-benzimidazol-2-yl]-8,8,11-trimethyl-1,10,19-triazatricyclo[10.5.2.0^{15,18}]nonadeca-12(19),13,15(18),16-tetraen-9-one] | 27400
2 | COc1cc(C(=O)N2CCC[C@@H](N)C2)cc2nc(-c3cc4ccc5nc4n3CCCCCC(C)(C)C(=O)N[C@@H]5C)c(C)n12 [Example 106, (10~{R})-16-[7-[(3~{R})-3-aminopiperidine-1-carbonyl]-5-methoxy-3-methyl-imidazo[1,2-a]pyridin-2-yl]-7,7,10-trimethyl-1,9,18-triazatricyclo[9.5.2.0^{14,17}]octadeca-11(18),12,14(17),15-tetraen-8-one] | 201
3 | COc1cc(C(=O)N2CCC[C@@H](N)C2)cc2nc(-c3cc4ccc5nc4n3CCCCCCCCC(=O)N3CCC[C@H]53)n(C)c12 [Example 107, (2~{R})-17-[5-[(3~{R})-3-aminopiperidine-1-carbonyl]-7-methoxy-1-methyl-benzimidazol-2-yl]-6,16,22-triazatetracyclo[14.5.2.0^{2,6}.0^{19,23}] tricosa-1(22),17,19(23),20-tetraen-7-one] | 24
4 | COc1cc(C(=O)N2CCC[C@@H](N)C2)cc2nc(-c3cc4ccc5nc4n3CCCCOCCC(=O)N3CCC[C@H]53)n(C)c12 [Example 108, (2~{R})-16-[5-[(3~{R})-3-aminopiperidine-1-carbonyl]-7-methoxy-1-methyl-benzimidazol-2-yl]-10-oxa-6,15,21-triazatetracyclo[13.5.2.0^{2,6}.0^{18,22}] docosa-1(21),16,18(22),19-tetraen-7-one] | 150
5 | COc1cc(C(=O)N2CCC[C@@H](N)C2)cc2nc(-c3cc4ccc5nc4n3CCCCOCC(=O)N3CCC[C@H]53)n(C)c12 [Example 109, (2~{R})-15-[5-[(3~{R})-3-aminopiperidine-1-carbonyl]-7-methoxy-1-methyl-benzimidazol-2-yl]-9-oxa-6,14,20-triazatetracyclo[12.5.2.0^{2,6}.0^{17,21}] henicosa-1(20),15,17(21),18-tetraen-7-one] | 303
6 | COc1cc(C(=O)N2CCC[C@@H](N)C2)cc2nc(-c3cc4ccc5nc4n3CCCCCC[C@@H](C)C(=O)N[C@@H]5C)n(C)c12 [Example 110, (8~{R},11~{R})-17-[5-[(3~{R})-3-aminopiperidine-1-carbonyl]-7-methoxy-1-methyl-benzimidazol-2-yl]-8,11-dimethyl-1,10,19-triazatricyclo[10.5.2.0^{15,18}]nonadeca-12(19),13,15(18),16-tetraen-9-one] | 70
7 | COc1cc(C(=O)N2CCC[C@@H](N)C2)cc2nc(-c3cc4ccc5nc4n3CCCCCC[C@H](C)C(=O)N[C@@H]5C)n(C)c12 [Example 111, (8~{S},11~{R})-17-[5-[(3~{R})-3-aminopiperidine-1-carbonyl]-7-methoxy-1-methyl-benzimidazol-2-yl]-8,11-dimethyl-1,10,19-triazatricyclo[10.5.2.0^{15,18}]nonadeca-12(19),13,15(18),16-tetraen-9-one] | 49
8 | COc1cc(C(=O)N2CCC[C@@H](N)C2)cc2nc(-c3cc4ccc5nc4n3CCCCCC[C@@H]3CCN(C3=O)[C@@H]5C)n(C)c12 [Example 112, (2~{R},6~{R})-14-[5-[(3~{R})-3-aminopiperidine-1-carbonyl]-7-methoxy-1-methyl-benzimidazol-2-yl]-2-methyl-3,13,19-triazatetracyclo[11.5.2.1^{3,6}.0^{16,20}] henicosa-1(19),14,16(20),17-tetraen-21-one] | 81
9 | COc1cc(C(=O)N2CCC[C@@H](N)C2)cc2nc(-c3cc4ccc5cc4n3CCCCCC[C@@H]3CCN(C3=O)[C@@H]5C)n(C)c12 [Example 113, (2~{R},6~{R})-14-[5-[(3~{R})-3-aminopiperidine-1-carbonyl]-7-methoxy-1-methyl-benzimidazol-2-yl]-2-methyl-3,13-diazatetracyclo[11.5.2.1^{3,6}.0^{16,20}] henicosa-1(19),14,16(20),17-tetraen-21-one] | 302
10 | COc1cc(C(=O)N2CCC[C@@H](N)C2)cc2nc(-c3cc4ccc5nc4n3CC3(CCCCCC(=O)N[C@@H]5C)CC3)n(C)c12 [Example 114, (11~{R})-17-[5-[(3~{R})-3-aminopiperidine-1-carbonyl]-7-methoxy-1-methyl-benzimidazol-2-yl]-11-methyl-spiro[1,10,19-triazatricyclo[10.5.2.0^{15,18}]nonadeca-12(19),13,15(18),16-tetraene-3,1′-cyclopropane]-9-one] | 61
11 | C[C@H]1NC(=O)C(C)(C)CCCCCCn2c(-c3nc4cc(C(=O)N5CCC[C@@H](N)C5)ccc4n3C3CC3)cc3ccc1nc32 [Example 117, (11~{R})-17-[5-[(3~{R})-3-aminopiperidine-1-carbonyl]-1-cyclopropyl-benzimidazol-2-yl]-8,8,11-trimethyl-1,10,19-triazatricyclo[10.5.2.0^{15,18}]nonadeca-12(19),13,15(18),16-tetraen-9-one] | 54
12 | COc1cc(C(=O)N2CCC[C@@H](N)C2)cc2nc(-c3cc4ccc5nc4n3C[C@H]3C[C@H]3CCCCC(=O)N[C@@H]5C)n(C)c12 [Example 118, (3~{S},5~{R},12~{R})-18-[5-[(3~{R})-3-aminopiperidine-1-carbonyl]-7-methoxy-1-methyl-benzimidazol-2-yl]-12-methyl-1,11,20-triazatetracyclo[11.5.2.0^{3,5}.0^{16,19}] icosa-13(20),14,16(19),17-tetraen-10-one] | 41
13 | COc1cc(C(=O)N2CCC[C@@H](N)C2)cc2nc(-c3cc4ccc5nc4n3C[C@H]3C[C@H]3CCCC(C)(C)C(=O)N[C@@H]5C)n(C)c12 [Example 119, (3~{S},5~{R},12~{R})-18-[5-[(3~{R})-3-aminopiperidine-1-carbonyl]-7-methoxy-1-methyl-benzimidazol-2-yl]-9,9,12-trimethyl-1,11,20-triazatetracyclo[11.5.2.0^{3,5}.0^{16,19}] icosa-13(20),14,16(19),17-tetraen-10-one] | 60
14 | COc1cc(C(=O)N2[C@H]3CC[C@@H]2[C@H](N)C3)cc2nc(-c3cc4ccc5nc4n3C/C=C\CCCCCC(=O)N[C@@H]5C)c(C)n12 [Example 120, (12˜{R})-18-[7-[(1˜{R},2˜{R},4˜{S})-2-amino-7-azabicyclo[2.2.1]heptane-7-carbonyl]-5-methoxy-3-methyl-imidazo[1,2-a]pyridin-2-yl]-12-methyl-1,11,20-triazatricyclo[11.5.2.0^{16,19}]icosa-3,13(20),14,16(19),17-pentaen-10-one] | 22
15 | COc1cc(C(=O)N2[C@H]3CC[C@@H]2[C@H](N)C3)cc2nc(-c3cc4ccc5nc4n3CCCCCCC(C)(C)C(=O)N[C@@H]5C)c(C)n12 [Example 121, (11~{R})-17-[7-[(1~{R},2~{R},4~{S})-2-amino-7-azabicyclo[2.2.1]heptane-7-carbonyl]-5-methoxy-3-methyl-imidazo[1,2-a]pyridin-2-yl]-8,8,11-trimethyl-1,10,19-triazatricyclo[10.5.2.0^{15,18}]nonadeca-12(19),13,15(18),16-tetraen-9-one] | 46
16 | COc1cc(C(=O)N2[C@H]3CC[C@@H]2[C@H](N)C3)cc2nc(-c3cc4ccc5nc4n3CCCCCC[C@@H](C)C(=O)N[C@@H]5C)c(C)n12 [Example 122, (8~{R},11~{R})-17-[7-[(1~{R},2~{R},4~{S})-2-amino-7-azabicyclo[2.2.1]heptane-7-carbonyl]-5-methoxy-3-methyl-imidazo[1,2-a]pyridin-2-yl]-8,11-dimethyl-1,10,19-triazatricyclo[10.5.2.0^{15,18}]nonadeca-12(19),13,15(18),16-tetraen-9-one] | 16
17 | COc1cc(C(=O)N2[C@H]3CC[C@@H]2[C@H](N)C3)cc2nc(-c3cc4ccc5nc4n3C/C=C\CCCCC(=O)N[C@@H]5C)c(C)n12 [Example 123, (3~{2},11~{R})-17-[7-[(1~{R},2~{R},4~{S})-2-amino-7-azabicyclo[2.2.1]heptane-7-carbonyl]-5-methoxy-3-methyl-imidazo[1,2-a]pyridin-2-yl]-11-methyl-1,10,19-triazatricyclo[10.5.2.0^{15,18}]nonadeca-3,12(19),13,15(18),16-pentaen-9-one] | 12
18 | COc1cc(C(=O)N2[C@H]3CC[C@@H]2[C@H](N)C3)cc2nc(-c3cc4ccc5nc4n3CCCCCC[C@H](C)C(=O)N[C@@H]5C)c(C)n12 [Example 124, (8~{S},11~{R})-17-[7-[(1~{R},2~{R},4~{S})-2-amino-7-azabicyclo[2.2.1]heptane-7-carbonyl]-5-methoxy-3-methyl-imidazo[1,2-a]pyridin-2-yl]-8,11-dimethyl-1,10,19-triazatricyclo[10.5.2.0^{15,18}]nonadeca-12(19),13,15(18),16-tetraen-9-one] | 12
19 | COc1cc(C(=O)N2[C@H]3CC[C@@H]2[C@H](N)C3)cc2nc(-c3cc4ccc5nc4n3CCCCCCCC(=O)N3CCC[C@H]53)n(C)c12 [Example 125, (2˜{R})-16-[5-[(1˜{R},2˜{R},4˜{S})-2-amino-7-azabicyclo[2.2.1]heptane-7-carbonyl)-7-methoxy-1-methyl-benzimidazol-2-yl]-6,15,21-triazatetracyclo[13.5.2.0^{2,6}.0^{18,22}]docosa-1(21),16,18(22),19-tetraen-7-one] | 21

Reference: patent publication US11976083B2, “Inhibitors of peptidylarginine deiminases” (Gilead Sciences, Inc., priority 2020, dated 2024)
